Experimental data published in patent publication US20180000745A1, “CRUCIFERIN COATED NANOPARTICLES” (priority 2016, published 2018).

Test system: Caco-2 cells
Assay: Cell uptake of coumarin-6-loaded particles by confocal microscopy
Type: cell-based
Conditions: 6 h incubation; particles 0.5 mg/mL, coumarin-6 […] in DMEM
Procedure: To study the cell uptake of nanoparticles in Caco-2 cells, coumarin-6, as a fluorescent marker, was encapsulated into the nanoparticles. The cellular uptake of coumarin-6-loaded nanoparticles was compared with free coumarin-6 (not encapsulated). In brief, 1 mL of coumarin-6 solution in ethanol at concentrations ranging from 10 to 400 μg/mL was mixed with 9 mL 2 mg/mL chitosan solution in 0.1 M acetic acid. 9 mL of 5 mg/mL cruciferin solution (solubilized at pH 12) was added dropwise to the solution while stirring. The pH of the suspension was adjusted to 5.5, stirred for 2 h and then centrifuged at 40000 g and 4° C. for 30 min, Loaded particles pellet was collected, washed twice with water and centrifuged to remove free coumarin-6. The labelled particles were re-suspended in DMEM medium at concentrations of 0.1, 0.5 and 1 mg/mL. The size and zeta potential of the re-suspended particles were measured. Caco-2 cells (10^5 cells/well) were seeded on cover glasses placed in 6-well plates (Costar, Corning, N.Y.), and incubated until cells were about 80% confluent. 2.5 mL of labelled-particles suspensions or free coumarin-6 solution in DMEM medium was added to each well and incubated for 6 h at 37° C. Then, the cells were washed three times with PBS to remove free nanoparticles and coumarin-6. Cell membranes were stained with 10 μg/mL Alexa Fluor 594-Concanavalin A conjugate in PBS for 10 min. […]

Compound: CCN(CC)c1ccc2cc(-c3nc4ccccc4s3)c(=O)oc2c1 [free coumarin-6, Coumarin 6]
- fluorescence within cells (cell uptake): no noticeable signal was detected
